Data: patent US20260218439A1, “METHOD OF TREATING OR REDUCING CANCER COMPRISING ADMINISTERING A COMPOUND 3-(BENZO[D][1,3]DIOXOL-5-YL)-7-(1-HYDROXYPROPAN-2-YL)-1-(1H-INDOLE-3-YL)-6,7-DIHYDRO-3H-OXAZOLE[3,4-A]PYRAZINE-5,8-DIONE” (BIOLAB SANUS FARMACEUTICA LTDA, priority 2019, published 2026)

Experiments:
[1] = system: DU145-human prostate cancer; experiment: Cell proliferation inhibition (CYQuant intracellular DNA), DU145; format: cell-based; conditions: for % Cell Proliferation Inhibition (intracellular DNA) DU145 (average ± E.P.M.): 72 hours
Protocol: (§1) For the execution of the assay, the compounds are diluted in DMSO 100% (v/v) at a concentration of 1000 μM and subsequently diluted in a Sodium Chloride solution 0.9% to obtain the storage solutions of interest for use in the assays. The final concentration of interest will be directly diluted in the cell culture medium. For the assay there are used the following tumor cell lineages: PC3-human prostate cancer cells; LNCAP-human prostate cancer cells; DU145-human prostate cancer; MNK45-human gastric cancer and RT4-human bladder cancer cells. The tumor cell lineages are maintained in culture according to standard procedures established by the Cell Bank of Rio de Janeiro (lineage place of origin) Procedure: • For the assay, the tumor cells are seeded in the concentration of 10.000 cells per well (final volume of the reaction of […]), the plate is incubated for 8 hours, for the cells to adhere to the wall of the wells. After this period, the plate is divided in groups: • (a) test group: […] of the samples were added (test compound) in the concentrations of interest; • (b) positive control group: […] of culture medium were added (100% of cell proliferation); • (c) negative control group: 200 mL of culture medium and […] of the vehicle used were added to dilute the compounds (without cells—zero proliferation); • (d) control group: […] were added of the vehicle used to dilute the compounds. This group is important to evaluate whether the vehicle used interferes in the cell proliferation. OBSERVATION: the treatment with the concentrations of samples (test compounds) and of the controls are carried out in triplicate. • Incubate the plate for 72 hours in a CO2 kiln at 37° C. • After the incubation period, add […] of the solution with DNA marker from the CYQuant Kit and incubate the plate, for 60 minutes, in a CO2 incubator at 37° C. The fluorescence intensity is determined using a fluorescence microplate reader with 485 nm excitation and 530 nm emission detection. The results obtained were normalized relative to the positive control group (100% proliferation). For the compounds there are prepared the storage solutions in the concentrations of: 100 nM, 1 μM, 3 μM, 5 μM, 10 μM and 30 μM (DMSO 10% v/v). While the final concentrations in the test are of: 10 nM, 100 nM, 300 nM, 500 nM, 1000 nM and 3000 nM (in DMSO 1% v/v).

PDE5A1 = target: T1, PDE5A1 (Homo sapiens, UniProt O76074); experiment: PDE5A1 fluorescence polarization enzyme assay (BPS Bioscience kit 60350); format: biochemical
T1 construct: purchased BPS Bioscience 60350
Protocol: The evaluation of the compound is studied using BPS Bioscience enzyme assay kit (catalogue 60350). The PDE5A1 Assay kit is designed for identification of PDE5A1 inhibitors using fluorescence polarization. The assay is based on the binding of a fluorescent nucleotide monophosphate generated by PDE5A1 enzyme to the binding agent.
In this methodology only two simple steps on a microtiter plate are required for PDE5A1 reactions. First, the fluorescently labeled cGMP is incubated with PDE5A1 for 1 hour. Second, the binding agent is added to the reaction mixture to produce a change in fluorescent polarization that can then be measured using a fluorescence reader equipped for the measurement of fluorescence polarization.
For the assay the storage reagent FAM-Cyclic-3′,5′-GMP (20 μM) is diluted with PDE assay buffer to achieve the solution with a […]; the PDE5A1 enzyme is thawed and diluted with the PDE buffer obtaining a PDE5A1 solution at 10 μg/mL.
The assay compounds are diluted with DMSO 100% (v/v) at a concentration of 1000 μM and subsequently diluted in a Sodium chloride 0.9% solution to obtain a curve of concentrations of interest for the assay. The compounds are diluted in concentrations of: 10 nM, 30 nM, 50 nM, 100 nM, 300 nM, 500 nM, 1 μM, 3 μM, 5 μM (DMSO 10% v/v).
The study is comprised of groups: (i) substrate control; (ii) positive control (KIT); (iii) samples in several concentrations; (iv) tadalafil (comparative control). Each parameter (group) is triple labeled.
• For the 4 groups there is added, to each microplate well, […] of the FAM-Cyclic-3′ reagent, 5′-GMP (200 μM). • To the substrate control group there is added, to each well, […] of vehicle (DMSO 10% v/v) and […] PDE Buffer. • To the positive control group there is added, to each well, […] of vehicle (DMSO 10% v/v). • To the tadalafil group: there is added 5 mL of the solution in the concentrations of interest. • To the test group there is added 5 mL of the sample solution (test compound)
OBSERVATION: the parameters tested are in triplicate.
To begin the reaction, add […] of the PDE5A1 enzyme (diluted as described above) to the microplate wells designated as Positive Control and Samples (test and tadalafil), and incubate the microplate, for 1 hour, at a temperature of 25° C.
After the incubation period, the reaction is interrupted by the addition, in all the wells, of […] of the binding agent solution and the microplate is incubated for 30 minutes, under light stirring, at room temperature. The reading of the microplate is carried out in Polarized Fluorescence (475-495 nm—excitation and 518-538 nm—emission detection) 500 nanoseconds integration time.

[2] = system: RT4-human bladder cancer cells; experiment: Cell proliferation inhibition (CYQuant intracellular DNA), RT4; format: cell-based; conditions: for % Cell Proliferation Inhibition (intracellular DNA) RT4 (average ± E.P.M.): 72 hours
Protocol: as §1

[3] = system: MNK45-human gastric cancer; experiment: Cell proliferation inhibition (CYQuant intracellular DNA), MNK45; format: cell-based; conditions: 72 hours
Protocol: as §1

[4] = system: LNCAP-human prostate cancer cells; experiment: Cell proliferation inhibition (CYQuant intracellular DNA), LNCAP; format: cell-based; conditions: for % Cell Proliferation Inhibition (intracellular DNA) LNCAP (average ± E.P.M.): 72 hours
Protocol: as §1

[5] = system: PC3-human prostate cancer cells; experiment: Cell proliferation inhibition (CYQuant intracellular DNA), PC3; format: cell-based; conditions: for % Cell Proliferation Inhibition (intracellular DNA) PC-3 (average ± E.P.M.): 72 hours
Protocol: as §1

Substance: (R)-3-(benzo [d][1, 3]dioxol-5-yl)-7-((R)-1-hydroxypropan-2-yl)-1-(1H-indole-3-yl)-6, 7-dihydro-3H-oxazole [3, 4-a]pyrazine-5, 8-dione with (S)-3-(benzo [d][1,3]dioxol-5-yl)-7-((R)-1-hydroxypropan-2-yl)-1-(1H-indole-3-yl)-6, 7-dihydro-3H-oxazole [3, 4-a]pyrazine-5, 8-dione [BL-380]
- % Cell Proliferation Inhibition (intracellular DNA) DU145 (average ± E.P.M.) ([1]; DU145, 100 nM): 12 ± 4%
- % Cell Proliferation Inhibition (intracellular DNA) DU145 (average ± E.P.M.) ([1]; DU145, 300 nM): 10 ± 5%
- % Cell Proliferation Inhibition (intracellular DNA) DU145 (average ± E.P.M.) ([1]; DU145, 500 nM): 12 ± 2%
- % Cell Proliferation Inhibition (intracellular DNA) DU145 (average ± E.P.M.) ([1]; DU145, 1000 nM): 10 ± 3%
- % Cell Proliferation Inhibition (intracellular DNA) DU145 (average ± E.P.M.) ([1]; DU145, 3000 nM): 31 ± 5%
- antiproliferative effect (result in words) ([1]; DU145 prostate cancer tumor lineage): presented antiproliferative effect
- % of Inhibition (PDE5A1) (PDE5A1; compound 10 nM): 0%
- % of Inhibition (PDE5A1) (PDE5A1; compound 30 nM): 0%
- % of Inhibition (PDE5A1) (PDE5A1; compound 50 nM): 0%
- % of Inhibition (PDE5A1) (PDE5A1; compound 100 nM): 0%
- % of Inhibition (PDE5A1) (PDE5A1; compound 300 nM): 15 ± 3%
- % of Inhibition (PDE5A1) (PDE5A1; compound 500 nM): 25 ± 3%
- % of Inhibition (PDE5A1) (PDE5A1; compound 1000 nM): 55 ± 4%
- % of Inhibition (PDE5A1) (PDE5A1; compound 3000 nM): 65 ± 2%
- % of Inhibition (PDE5A1) (PDE5A1; compound 5000 nM): 78 ± 1%
- PDE5 inhibition (result in words) (PDE5A1; concentration series): capable of inhibiting the PDE5 in a dose-dependent manner
- concentration as from which PDE5 inhibition was observed (PDE5A1; tested 10 nM to 5000 nM): ≥ 300 nM
- % Cell Proliferation Inhibition (intracellular DNA) RT4 (average ± E.P.M.) ([2]; RT4, 100 nM): 8 ± 6%
- % Cell Proliferation Inhibition (intracellular DNA) RT4 (average ± E.P.M.) ([2]; RT4, 300 nM): 5 ± 5%
- % Cell Proliferation Inhibition (intracellular DNA) RT4 (average ± E.P.M.) ([2]; RT4, 500 nM): 3 ± 5%
- % Cell Proliferation Inhibition (intracellular DNA) RT4 (average ± E.P.M.) ([2]; RT4, 1000 nM): 3 ± 1%
- % Cell Proliferation Inhibition (intracellular DNA) RT4 (average ± E.P.M.) ([2]; RT4, 3000 nM): 58 ± 4%
- antiproliferative effect (result in words) ([2]; RT4 bladder cancer tumor lineage): presented antiproliferative effect
- % Cell Proliferation Inhibition (intracellular DNA) MNK45 (average ± E.P.M.) ([3]; MNK45, 100 nM): 7 ± 2%
- % Cell Proliferation Inhibition (intracellular DNA) MNK45 (average ± E.P.M.) ([3]; MNK45, 300 nM): 0%
- % Cell Proliferation Inhibition (intracellular DNA) MNK45 (average ± E.P.M.) ([3]; MNK45, 500 nM): 0%
- % Cell Proliferation Inhibition (intracellular DNA) MNK45 (average ± E.P.M.) ([3]; MNK45, 1000 nM): 0%
- % Cell Proliferation Inhibition (intracellular DNA) MNK45 (average ± E.P.M.) ([3]; MNK45, 3000 nM): 16 ± 5%
- antiproliferative effect (result in words) ([4]; LNCAP prostate cancer tumor lineage): presented antiproliferative effect
- % Cell Proliferation Inhibition (intracellular DNA) LNCAP (average ± E.P.M.) ([4]; 10 nM): 26 ± 10%
- % Cell Proliferation Inhibition (intracellular DNA) LNCAP (average ± E.P.M.) ([4]; 100 nM): 12 ± 3%
- % Cell Proliferation Inhibition (intracellular DNA) LNCAP (average ± E.P.M.) ([4]; 300 nM): 29 ± 6%
- % Cell Proliferation Inhibition (intracellular DNA) LNCAP (average ± E.P.M.) ([4]; 500 nM): 27 ± 2%
- % Cell Proliferation Inhibition (intracellular DNA) LNCAP (average ± E.P.M.) ([4]; 1000 nM): 37 ± 2%
- % Cell Proliferation Inhibition (intracellular DNA) LNCAP (average ± E.P.M.) ([4]; 3000 nM): 48 ± 6%
- antiproliferative effect (result in words) ([5]; PC3 prostate cancer tumor lineage): presented antiproliferative effect
- % Cell Proliferation Inhibition (intracellular DNA) PC-3 (average ± E.P.M.) ([5]; PC-3, 10 nM): 39 ± 6%
- % Cell Proliferation Inhibition (intracellular DNA) PC-3 (average ± E.P.M.) ([5]; PC-3, 100 nM): 25 ± 5%
- % Cell Proliferation Inhibition (intracellular DNA) PC-3 (average ± E.P.M.) ([5]; PC-3, 300 nM): 28 ± 2%
- % Cell Proliferation Inhibition (intracellular DNA) PC-3 (average ± E.P.M.) ([5]; PC-3, 500 nM): 48 ± 6%
- % Cell Proliferation Inhibition (intracellular DNA) PC-3 (average ± E.P.M.) ([5]; PC-3, 1000 nM): 40 ± 3%
- % Cell Proliferation Inhibition (intracellular DNA) PC-3 (average ± E.P.M.) ([5]; PC-3, 3000 nM): 54 ± 4%
